In one series the target is T1, OAT3 (Homo sapiens, UniProt Q8TCC7).
T1 sequence (Q8TCC7 1-542): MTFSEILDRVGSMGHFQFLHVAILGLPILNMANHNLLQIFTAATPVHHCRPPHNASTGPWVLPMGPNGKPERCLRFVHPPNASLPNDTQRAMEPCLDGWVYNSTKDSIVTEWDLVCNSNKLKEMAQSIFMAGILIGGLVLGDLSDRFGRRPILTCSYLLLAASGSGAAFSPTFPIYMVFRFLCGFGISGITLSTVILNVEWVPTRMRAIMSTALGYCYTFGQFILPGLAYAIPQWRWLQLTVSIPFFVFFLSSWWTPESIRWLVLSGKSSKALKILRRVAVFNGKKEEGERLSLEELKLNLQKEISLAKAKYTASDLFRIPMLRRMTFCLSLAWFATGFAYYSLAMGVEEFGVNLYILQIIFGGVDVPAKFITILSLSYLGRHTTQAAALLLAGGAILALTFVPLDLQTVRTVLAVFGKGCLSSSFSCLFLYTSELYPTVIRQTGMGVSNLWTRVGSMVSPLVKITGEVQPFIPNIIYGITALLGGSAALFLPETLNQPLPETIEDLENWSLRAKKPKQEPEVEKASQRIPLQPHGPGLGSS
The series can be described thus: In vitro transporter inhibition, OAT3. It is filed as in vitro ADME. The text has this:
However, based on PBPK modeling, no interaction with OAT substrates is expected at clinically relevant concentrations.

Series [1] in a line: Pharmacokinetic properties of the components of the Combination (Table 6). Details: species or system human. The conditions noted are these: in vivo.
Another series concerns clinical HIV-2 isolates. In words: Antiviral activity against clinical HIV-2 isolates. Type of series: cell-based. The conditions noted are these: Human immunodeficiency virus 2, n=4.

Like-named read-outs stand apart in the source and are kept apart here.

At OAT3, `C[C@H]1CO[C@@H]2Cn3cc(C(=O)NCc4ccc(F)cc4F)c(=O)c(O)c3C(=O)N12` [Cabotegravir, (3S,11aR)-N-[(2,4-difluorophenyl)methyl]-6-hydroxy-3-methyl-5,7-dioxo-2,3,5,7,11,11a-hexahydro[1,3]oxazolo[3,2-a]pyrido[1,2-d]pyrazine-8-carboxamide] returned an IC50 of 410 nM. Moreover, the Tmax in series [1] (human, im, intramuscular injection, read-out: Tmax, median (converted)) is 7 days. The half-life in series [1] (human, im, intramuscular injection, read-out: t1/2 (absorption rate limited), mean) was in the range of 39.2 to 80.5 days. Besides, the “Major route of elimination” value in series [1] is recorded as “Metabolism”. Besides, the Metabolic pathways result is “UGT1A1” in series [1] and “UGT1A9 (minor)” in series [1] (minor pathway). For the same compound, the EC50 is 0.1 to 0.14 nM in the series on clinical HIV-2 isolates (read-out: EC50 range) and 0.12 nM with clinical HIV-2 isolates (read-out: median EC50).
